Measurements as given in patent US20080261895A1 (Wyeth, priority 2006, published 2008).
Values joined by “and” are separate entries in the source; they are usually repeats but may differ in a detail not shown here. Equal entries are not always repeated. Marks after values point to notes of the source that are not given here.

Assays:
[1] = Fecal excretion and metabolite profile by radiochromatography, rats; type: in vivo, Sprague Dawley rats; details: for % of the radioactive dose excreted in feces: rats
Description: Urine and feces were collected separately on dry ice from three animals per sex. Collections were from 0-8 and 8-24 hours for male rats and 0-8 hours for female rats. Fecal samples were homogenized in approximately five volumes (v/w) of water. Aliquots of approximately 0.4 grams of the homogenate were placed into combusto-cones, weighed and allowed to air dry. These samples were then oxidized. The remaining urine samples and fecal homogenates were stored at −70° C. until metabolite analysis.
Fecal homogenates collected from male rats between 8 and 24 hours post-dose were analyzed for metabolite profiles. Aliquots of approximately 1 gram of fecal homogenate were centrifuged at 3500 rpm and 4° C. in a Sorvall Super 21 centrifuge for 10 minutes. The supernatant was transferred to a clean tube. The residue was re-suspended with 1 mL of water:acetonitrile (1:1, v:v) and centrifuged as described above. The resulting supernatant was combined with the original supernatant and the residue re-suspended with 1 mL of acetonitrile. The suspension was centrifuged as described above, and the supernatants were combined and analyzed for radioactivity. The supernatants were then concentrated under a stream of nitrogen in a Turbo Vap to remove the acetonitrile. An aliquot of the aqueous residue was analyzed by HPLC for profiling. Selected samples were also analyzed by LC/MS to characterize the radioactive peaks.
(§1) Chromatographic analyses were performed with a Waters Alliance model 2690 HPLC system (Waters Corp., Milford, Mass.). It was equipped with a built-in autosampler and was in-line with a model 2487 tunable UV detector, set to monitor 225 nm, and a FloOne β Model 525 radioactivity flow detector (Perkin Elmer) with a 250 μL LQTR flow cell. The flow rate of Ultima Flow M scintillation fluid was 1 mL/min, providing a mixing ratio of scintillation cocktail to mobile phase of 5:1. Separation of the metabolite peaks was accomplished on a Phenomenex Luna C18(2) column, 150×2.0 mm, 5 micron (Phenomenex, Torrance, Calif.), using a linear gradient of two mobile phases, A and B. Mobile phase A was 10 mM ammonium acetate, pH 6.0, and mobile phase B was acetonitrile. The flow rate was 0.2 mL/min.

[2] = Urinary excretion and metabolite profile by radiochromatography, dogs; type: in vivo, beagle dogs; details: single oral 30 mg/kg
Description: (§2) For each dog, urine and feces were collected separately, with urine collected on dry ice and feces collected at room temperature. Collections were from 0-8 and 8-24 hours for urine and 0-24 hours for feces. Urine and fecal samples were shipped on dry ice to Wyeth Research, Biotransformation Division (Collegeville, Pa.) for analysis. Fecal samples were homogenized in approximately five volumes (v/w) of water. Aliquots of approximately 0.2 grams of the homogenate were placed into combusto-cones, weighed and allowed to air dry. These samples were then oxidized and radioactivity content determined. The remaining urine samples and fecal homogenates were stored at −70° C. until metabolite analysis. Blood samples and fecal homogenates were oxidized in a Model 307 Tri-Carb sample oxidizer, using Carbosorb® E (6 mL) as trapping agent and PermaFluor® E^+ (10 mL) as scintillant. The background reading (average of control blood or fecal samples) was subtracted from each sample reading. Aliquots of urine and plasma were analyzed directly following the addition of 10 mL of Ultima Gold™ scintillation fluid.
Urine samples collected between 8 and 24 hours post-dose were analyzed for metabolite profiles. Aliquots of urine were centrifuged at 14000 rpm in an Eppendorf Model 5415C centrifuge for 10 minutes. The supernatant was transferred to a fresh tube and analyzed for radioactivity content and by HPLC for metabolite profiling. Selected samples were also analyzed by LC/MS to characterize the radioactive peaks.
as §1, with “β Model 515 radioactivity flow” for “β Model 525 radioactivity flow”, “fluid was 3 mL/min, providing” for “fluid was 1 mL/min, providing”, “phase of 3:1. Separation of” for “phase of 5:1. Separation of”, “C18(2) column, 250×4.6 mm, 5” for “C18(2) column, 150×2.0 mm, 5”, “acetate, pH 5.5, and mobile” for “acetate, pH 6.0, and mobile”, “rate was 1 mL/min.” for “rate was 0.2 mL/min.”

[3] = Fecal excretion and metabolite profile by radiochromatography, dogs; type: in vivo, beagle dogs; details: single oral 30 mg/kg
Description: as §2
Fecal homogenates collected up to 24 hours post-dose were analyzed for metabolite profiles. Aliquots of approximately 2 grams of fecal homogenate were transferred to a fresh tube, an equal volume of acetonitrile (v/w) was added, and the tube vortexed. Samples were then centrifuged at 14000 rpm in an Eppendorf Model 5415C centrifuge for 10 minutes. The supernatant was transferred to a clean tube. The residue was re-suspended with 1 mL acetonitrile and centrifuged as described above. The resulting supernatant was combined with the original supernatant and analyzed for radioactivity. The supernatants were then concentrated under a stream of nitrogen in a Turbo Vap to remove the acetonitrile. An aliquot of the aqueous residue was analyzed by HPLC for profiling. Selected samples were also analyzed by LC/MS to characterize the radioactive peaks.
as §1, with “β Model 515 radioactivity flow” for “β Model 525 radioactivity flow”, “fluid was 3 mL/min, providing” for “fluid was 1 mL/min, providing”, “phase of 3:1. Separation of” for “phase of 5:1. Separation of”, “C18(2) column, 250×4.6 mm, 5” for “C18(2) column, 150×2.0 mm, 5”, “acetate, pH 5.5, and mobile” for “acetate, pH 6.0, and mobile”, “rate was 1 mL/min.” for “rate was 0.2 mL/min.”

dog liver microsomes = assay: Glucuronidation in dog liver microsomes; type: in vitro ADME; details: dog liver microsomes 1 mg/mL, 100 μM, 30 minutes; in the presence of only UDPGA
Description: To confirm the site of glucuronidation of DVS, incubations were performed using dog liver microsomes. These incubations compared the glucuronidation of DVS to venlafaxine. […] Reactions were initiated by the addition of UDPGA (final concentration 1 mM). An additional set of incubations was performed for venlafaxine with UDPGA and an NADPH generating system. […] Reactions were stopped by the addition of 500 μL of acetonitrile and processed as described above. Samples were analyzed by LC/MS.

[4] = includes 0-8 and 8-24 hour time points, 30 mg/kg

## CN(C)CC(c1ccc(O)cc1)C1(O)CCCCC1.O=C(O)CCC(=O)O (stereo not shown) [DVS, O-desmethylvenlafaxine succinate]
[1]; male rats, feces 8-24 hours post-dose, single oral 20 mg/kg
  Radioactivity as % of Dose in feces, Mean ± S.D.: 9.6 ± 1.1%
[1]; male rats, feces 8-24 hours post-dose, single oral 20 mg/kg, 20 mg/kg
  Compounds Detected by Radiochromatography in feces, percent of total peaks, individual rats: 19.6% and 20.8% and 22.0%
[1]; male rats, feces 8-24 hours post-dose, single oral 20 mg/kg, listed as [^14C]DVS, 20 mg/kg
  Radioactivity as % of Dose in feces, individual rats: 10.8% and 9.5% and 8.5^b %
[1]; 0-8 hour fecal samples
  % of the radioactive dose excreted in feces: Less than 0.1%
[1]; within 24 hours of dosing
  % of the radioactive dose excreted in feces: approximately 10%
[2]; [4]
  Radioactivity as % of Dose in urine, Mean ± S.D.: 74.8 ± 13.0^b %
  Radioactivity as % of Dose in urine, individual dogs: 85.4% and 63.0% and 86.6% and 64.0%
[2]; includes 0-8 and 8-24 hour time points, listed as [^14C]DVS, 30 mg/kg
  Radioactivity as % of Dose in urine, Mean ± S.D.: 75%
[2]; urine 8-24 hours post-dose
  Compounds Detected by Radiochromatography in urine, percent of total peaks, Mean ± S.D.: 5.8 ± 1.6%
[2]; urine 8-24 hours post-dose, mean of 2 analyses, 30 mg/kg
  Compounds Detected by Radiochromatography in urine, percent of total peaks, individual dogs: 7.9% and 5.7% and 5.4% and 4.0%
[3]; feces 0-24 hours post dose (dog 7 until 48 hours), average of 2 analyses
  Compounds Detected by Radiochromatography in feces, percent of total peaks, individual dogs: 78.6% and 50.6% and 85.7% and 88.8%
[3]; feces 0-24 hours post dose (dog 7 until 48 hours), listed as [^14C]DVS
  Radioactivity as % of Dose in feces, individual dogs: 4.4% and 0.3% and 4.0% and 3.3%
[3]; feces 0-24 hours post dose
  Compounds Detected by Radiochromatography in feces, percent of total peaks, Mean ± S.D.: 76% and 75.9 ± 17.4%
  Radioactivity as % of Dose in feces, Mean ± S.D.: approximately 3%
[3]; feces 0-24 hours post dose, listed as [^14C]DVS
  Radioactivity as % of Dose in feces, Mean ± S.D.: 3.0 ± 1.9%
Dog liver microsomes
  glucuronidation: observed
